# Test results published in patent US8192962B2, “Processes for detecting toxic substances” (Daikin Industries, Ltd., priority 2001, dated 2012).
# Test system: Genes belonging to other category
# Test: DNA chip mRNA expression in yeast, genes belonging to other category (Table 9)
# Format: cell-based, Saccharomyces cerevisiae S288C
# Procedure: Yeast (Saccharomyces cerevisiae S288C (α SUC2mal mel gap2 CUP1)) were incubated at 25° C. on YPD medium (yeast extract 1%, polypepton 2%, glucose 2%). One of toxic chemical substances was added to the cells at logarithmic growth phase, and the cells were further incubated for two hours. Cells were cultured without any chemical substance in the same condition, and were used as control. Concentrations of the chemical substances were defined to inhibit the growth of the yeast but not lead to death.
# After completion of the incubation, the culture was centrifuged to collect the cells. To the cells, sodium acetate buffer (50 mM sodium acetate, 10 mM EDTA, 1% SDS) was added, and the mixture was shaken at 65° C. for five minutes, followed by returning to room temperature, and obtaining the supernatant, of which the procedures were repeated two times. To the supernatant, ½ amount of a solution of phenol/chloroform was added, and the mixture was centrifuged to give a supernatant, which was added with an equal amount of chloroform, and the mixture was centrifuged to give a supernatant. To the supernatant, an equal amount of isopropanol containing 0.3 M sodium acetate was added, and the mixture was allowed to stand at room temperature for 30 minutes, after which the mixture was centrifuged to give a sediment of the whole RNAs. Seventy % ethanol was added to the sediment, and the mixture was again centrifuged to give a sediment, which was then dried and dissolved in water. mRNA was isolated from the whole RNAs as followings. In view of the fact that a poly A chain is attached to the 3′ terminus of mRNA, a polynucleotide having a poly T structure which was immobilized on the surface of latex beads was used to trap the mRNA, and then the mRNA was washed and eluted with spine column (Oligotex-dT30<Super>mRNA Purification Kit, Takara). Reverse transcription of the mRNA was conducted with a reverse transcriptase (Super Script II Reverse Transcriptase; catalogue No. 18064-014, GibcoBRL) using fluorescence-labeled nucleotides to give cDNAs that were introduced with Cy3-dUTP or Cy5-dUTP during the reverse transcription.
# The labeled cDNAs were dissolved in TE buffer (10mM Tris-HCl/1 mM EDTA, pH8.0), and the solution was dropped on the DNA chip containing the whole genes of yeast (DNA Chip Research Inc. Japan) so that the cDNAs were hybridized on the DNA chip at 65° C. for over 12 hours. The fluoresces intensity of the DNA chip was read with a scanner, and the ratio relative to the fluorescence intensity resulting from the absence of chemical substance was estimated as the following, which is shown in Tables 1 to 9: […]
smiles,measurement,setting,value
"CCCCCCCCCCCCc1ccc(S(=O)(=O)[O-])cc1.[Na+] [(17), sodium dodecylbenzosulfonate]",The level of expressed mRNA in the presence of chemical substance/The level of expressed mRNA in the absence of chemical substance,yeast gene YAR010C,1.5
same,The level of expressed mRNA in the presence of chemical substance/The level of expressed mRNA in the absence of chemical substance,yeast gene YBL005W-A,1.3
same,The level of expressed mRNA in the presence of chemical substance/The level of expressed mRNA in the absence of chemical substance,yeast gene YBL041W,1.3
same,The level of expressed mRNA in the presence of chemical substance/The level of expressed mRNA in the absence of chemical substance,yeast gene YBL043W,2.3
same,The level of expressed mRNA in the presence of chemical substance/The level of expressed mRNA in the absence of chemical substance,yeast gene YBL078C,1.8
same,The level of expressed mRNA in the presence of chemical substance/The level of expressed mRNA in the absence of chemical substance,yeast gene YBR214W,1.1
same,The level of expressed mRNA in the presence of chemical substance/The level of expressed mRNA in the absence of chemical substance,yeast gene YCL020W,0.9
same,The level of expressed mRNA in the presence of chemical substance/The level of expressed mRNA in the absence of chemical substance,yeast gene YCL027W,0.7
same,The level of expressed mRNA in the presence of chemical substance/The level of expressed mRNA in the absence of chemical substance,yeast gene YCR004C,1.4
same,The level of expressed mRNA in the presence of chemical substance/The level of expressed mRNA in the absence of chemical substance,yeast gene YCR071C,1.2
same,The level of expressed mRNA in the presence of chemical substance/The level of expressed mRNA in the absence of chemical substance,yeast gene YCR088W,1.4
same,The level of expressed mRNA in the presence of chemical substance/The level of expressed mRNA in the absence of chemical substance,yeast gene YDL008W,1.5
same,The level of expressed mRNA in the presence of chemical substance/The level of expressed mRNA in the absence of chemical substance,yeast gene YDL238C,1.1
same,The level of expressed mRNA in the presence of chemical substance/The level of expressed mRNA in the absence of chemical substance,yeast gene YDR055W,2.0
same,The level of expressed mRNA in the presence of chemical substance/The level of expressed mRNA in the absence of chemical substance,yeast gene YDR084C,2.0
same,The level of expressed mRNA in the presence of chemical substance/The level of expressed mRNA in the absence of chemical substance,yeast gene YDR085C,1.3
same,The level of expressed mRNA in the presence of chemical substance/The level of expressed mRNA in the absence of chemical substance,yeast gene YDR104C,0.9
same,The level of expressed mRNA in the presence of chemical substance/The level of expressed mRNA in the absence of chemical substance,yeast gene YDR115W,1.2
same,The level of expressed mRNA in the presence of chemical substance/The level of expressed mRNA in the absence of chemical substance,yeast gene YDR259C,1.0
same,The level of expressed mRNA in the presence of chemical substance/The level of expressed mRNA in the absence of chemical substance,yeast gene YDR315C,1.2
same,The level of expressed mRNA in the presence of chemical substance/The level of expressed mRNA in the absence of chemical substance,yeast gene YDR358W,1.9
same,The level of expressed mRNA in the presence of chemical substance/The level of expressed mRNA in the absence of chemical substance,yeast gene YDR388W,1.2
same,The level of expressed mRNA in the presence of chemical substance/The level of expressed mRNA in the absence of chemical substance,yeast gene YDR432W,0.7
same,The level of expressed mRNA in the presence of chemical substance/The level of expressed mRNA in the absence of chemical substance,yeast gene YDR481C,1.2
same,The level of expressed mRNA in the presence of chemical substance/The level of expressed mRNA in the absence of chemical substance,yeast gene YDR510W,1.1
same,The level of expressed mRNA in the presence of chemical substance/The level of expressed mRNA in the absence of chemical substance,yeast gene YEL042W,0.7
same,The level of expressed mRNA in the presence of chemical substance/The level of expressed mRNA in the absence of chemical substance,yeast gene YEL066W,1.0
same,The level of expressed mRNA in the presence of chemical substance/The level of expressed mRNA in the absence of chemical substance,yeast gene YER039C,1.7
same,The level of expressed mRNA in the presence of chemical substance/The level of expressed mRNA in the absence of chemical substance,yeast gene YER107C,1.1
same,The level of expressed mRNA in the presence of chemical substance/The level of expressed mRNA in the absence of chemical substance,yeast gene YER130C,3.0
same,The level of expressed mRNA in the presence of chemical substance/The level of expressed mRNA in the absence of chemical substance,yeast gene YFL022C,0.9
same,The level of expressed mRNA in the presence of chemical substance/The level of expressed mRNA in the absence of chemical substance,yeast gene YFL028C,1.2
same,The level of expressed mRNA in the presence of chemical substance/The level of expressed mRNA in the absence of chemical substance,yeast gene YFL043C,1.5
same,The level of expressed mRNA in the presence of chemical substance/The level of expressed mRNA in the absence of chemical substance,yeast gene YGL158W,0.8
same,The level of expressed mRNA in the presence of chemical substance/The level of expressed mRNA in the absence of chemical substance,yeast gene YGL229C,1.1
same,The level of expressed mRNA in the presence of chemical substance/The level of expressed mRNA in the absence of chemical substance,yeast gene YGR136W,1.3
same,The level of expressed mRNA in the presence of chemical substance/The level of expressed mRNA in the absence of chemical substance,yeast gene YGR189C,2.3
same,The level of expressed mRNA in the presence of chemical substance/The level of expressed mRNA in the absence of chemical substance,yeast gene YGR213C,12.8
same,The level of expressed mRNA in the presence of chemical substance/The level of expressed mRNA in the absence of chemical substance,yeast gene YGR257C,1.1
same,The level of expressed mRNA in the presence of chemical substance/The level of expressed mRNA in the absence of chemical substance,yeast gene YHR004C,1.4
same,The level of expressed mRNA in the presence of chemical substance/The level of expressed mRNA in the absence of chemical substance,yeast gene YHR071W,2.6
same,The level of expressed mRNA in the presence of chemical substance/The level of expressed mRNA in the absence of chemical substance,yeast gene YHR139C,1.4
same,The level of expressed mRNA in the presence of chemical substance/The level of expressed mRNA in the absence of chemical substance,yeast gene YHR142W,1.3
same,The level of expressed mRNA in the presence of chemical substance/The level of expressed mRNA in the absence of chemical substance,yeast gene YIL123W,1.3
same,The level of expressed mRNA in the presence of chemical substance/The level of expressed mRNA in the absence of chemical substance,yeast gene YIL140W,0.7
same,The level of expressed mRNA in the presence of chemical substance/The level of expressed mRNA in the absence of chemical substance,yeast gene YJL073W,1.1
same,The level of expressed mRNA in the presence of chemical substance/The level of expressed mRNA in the absence of chemical substance,yeast gene YJL089W,1.2
same,The level of expressed mRNA in the presence of chemical substance/The level of expressed mRNA in the absence of chemical substance,yeast gene YJL116C,1.2
same,The level of expressed mRNA in the presence of chemical substance/The level of expressed mRNA in the absence of chemical substance,yeast gene YJR004C,0.4
same,The level of expressed mRNA in the presence of chemical substance/The level of expressed mRNA in the absence of chemical substance,yeast gene YJR086W,1.4
